Measurements: PubChem BioAssay AID1963421 (Molecular Pharmacology Branch, DTP, NCI, 2024)
Where “and” joins values, the source holds several entries; their conditions need not be identical. Equal values may be shown once.

Test system: 519858-162-T-J1-PDC complex spheroid growth, % test/control
Assay: Anticancer human tumor 519858-162-T-J1-PDC patient-derived colon adenocarcinoma cell line growth inhibition [Asc]
Details: for viability, T/C: stronger effect = lower value
Summary of the method: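 Complex solid-tumor spheroids incorporating human endothelial and mesenchymal stem cells received single agents or combinations over half-log dilution ranges anchored to clinical Cmax.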

[1] = curve of first compound, second compound 0.00949 µM
[2] = curve of first compound, second compound 0.03 µM
[3] = curve of first compound, second compound 0.0949 µM
[4] = curve of first compound, second compound 0.3 µM
[5] = curve of first compound, second compound 0.949 µM
[6] = curve of first compound, second compound 3 µM
[7] = second compound 0.00949 µM, first compound 0.00316 µM
[8] = second compound 0.00949 µM, first compound 0.01 µM
[9] = second compound 0.00949 µM, first compound 0.0316 µM
[10] = second compound 0.00949 µM, first compound 0.1 µM
[11] = second compound 0.00949 µM, first compound 0.316 µM
[12] = second compound 0.00949 µM, first compound 1 µM
[13] = second compound 0.03 µM, first compound 0.00316 µM
[14] = second compound 0.03 µM, first compound 0.01 µM
[15] = second compound 0.03 µM, first compound 0.0316 µM
[16] = second compound 0.03 µM, first compound 0.1 µM
[17] = second compound 0.03 µM, first compound 0.316 µM
[18] = second compound 0.03 µM, first compound 1 µM
[19] = second compound 0.0949 µM, first compound 0.00316 µM
[20] = second compound 0.0949 µM, first compound 0.01 µM
[21] = second compound 0.0949 µM, first compound 0.0316 µM
[22] = second compound 0.0949 µM, first compound 0.1 µM
[23] = second compound 0.0949 µM, first compound 0.316 µM
[24] = second compound 0.0949 µM, first compound 1 µM
[25] = second compound 0.3 µM, first compound 0.00316 µM
[26] = second compound 0.3 µM, first compound 0.01 µM
[27] = second compound 0.3 µM, first compound 0.0316 µM
[28] = second compound 0.3 µM, first compound 0.1 µM
[29] = second compound 0.3 µM, first compound 0.316 µM
[30] = second compound 0.3 µM, first compound 1 µM
[31] = second compound 0.949 µM, first compound 0.00316 µM
[32] = second compound 0.949 µM, first compound 0.01 µM
[33] = second compound 0.949 µM, first compound 0.0316 µM
[34] = second compound 0.949 µM, first compound 0.1 µM
[35] = second compound 0.949 µM, first compound 0.316 µM
[36] = second compound 0.949 µM, first compound 1 µM
[37] = second compound 3 µM, first compound 0.00316 µM
[38] = second compound 3 µM, first compound 0.01 µM
[39] = second compound 3 µM, first compound 0.0316 µM
[40] = second compound 3 µM, first compound 0.1 µM
[41] = second compound 3 µM, first compound 0.316 µM
[42] = second compound 3 µM, first compound 1 µM
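Note: seven day drug exposure begun three days after spheroid seeding.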
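Throughout, for viability, T/C: 100% = DMSO vehicle wells and lower values mean less viable spheroid.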

With `COc1c(OCCCN2CCOCC2)ccc2c3n(c(=NC(=O)c4cnc(N)nc4)nc12)CCN3` + CCN1C(C(=O)NC23CCC(C(=O)O)(CC2)CC3)C(c2cccc(Cl)c2F)C2(C(=O)Nc3cc(Cl)ccc32)C12CCCCC2 the IC50 [1] was > 1000 nM, the IC50 [2] was > 1000 nM and the IC50 [3] was > 1000 nM. For the same molecule, the IC50 [4] was 749 nM, the IC50 [5] was 301 nM and the IC50 [6] was > 1000 nM. The viability, T/C [7] was 75.5%, the viability, T/C [8] was 130% and the viability, T/C [9] was 88.6%. For the same molecule, the viability, T/C [10] was 80.3%, the viability, T/C [11] was 70.8% and the viability, T/C [12] was 53%. It also gave a viability, T/C [13] of 95.3%, a viability, T/C [14] of 93.1% and a viability, T/C [15] of 89.3%. It also gave a viability, T/C [16] of 80.3%, a viability, T/C [17] of 81.6% and a viability, T/C [18] of 57.3%. The viability, T/C [19] was 86.8%, the viability, T/C [20] was 80.3% and the viability, T/C [21] was 98.1%. The viability, T/C [22] was 77.2%, the viability, T/C [23] was 64.2% and the viability, T/C [24] was 55.9%. It also gave a viability, T/C [25] of 89.8%, a viability, T/C [26] of 73.2% and a viability, T/C [27] of 80.2%. The viability, T/C [28] was 84.3%, the viability, T/C [29] was 56.2% and the viability, T/C [30] was 47.9%. The viability, T/C [31] was 69.6%, the viability, T/C [32] was 91.1% and the viability, T/C [33] was 91%. For the same molecule, the viability, T/C [34] was 47.5%, the viability, T/C [35] was 60.8% and the viability, T/C [36] was 32.1%. For the same molecule, the viability, T/C [37] was 78.4%, the viability, T/C [38] was 86% and the viability, T/C [39] was 80.6%. It also gave a viability, T/C [40] of 57.6%, a viability, T/C [41] of 60.2% and a viability, T/C [42] of 50.4%.

`C#Cc1c(F)ccc2cc(O)cc(-c3ncc4c(N5CC6CCC(C5)N6)nc(OCC56CCCN5CC(F)C6)nc4c3F)c12` (stereo not given) + CCN1C(C(=O)NC23CCC(C(=O)O)(CC2)CC3)C(c2cccc(Cl)c2F)C2(C(=O)Nc3cc(Cl)ccc32)C12CCCCC2 was tested, and the IC50 [1] was > 10000 nM, the IC50 [2] was > 10000 nM and the IC50 [3] was > 10000 nM. For the same molecule, the IC50 [4] was > 10000 nM, the IC50 [5] was > 10000 nM and the IC50 [6] was > 10000 nM. For the same molecule, the viability, T/C [9] was 75.2%, the viability, T/C [10] was 104% and the viability, T/C [11] was 84.3%. It also gave a viability, T/C [12] of 66.3%, a viability, T/C (second compound 0.00949 µM, first compound 3.16 µM) of 82.3% and a viability, T/C (second compound 0.00949 µM, first compound 10 µM) of 64%. The viability, T/C [15] was 67.5%, the viability, T/C [16] was 84.6% and the viability, T/C [17] was 96.4%. It also gave a viability, T/C [18] of 92.4%, a viability, T/C (second compound 0.03 µM, first compound 3.16 µM) of 94.3% and a viability, T/C (second compound 0.03 µM, first compound 10 µM) of 88.4%. The viability, T/C [21] was 89.6%, the viability, T/C [22] was 99.2% and the viability, T/C [23] was 88.4%. It also gave a viability, T/C [24] of 64.1%, a viability, T/C (second compound 0.0949 µM, first compound 3.16 µM) of 81.4% and a viability, T/C (second compound 0.0949 µM, first compound 10 µM) of 69%. It also gave a viability, T/C [27] of 59.4%, a viability, T/C [28] of 95.5% and a viability, T/C [29] of 78.4%. For the same molecule, the viability, T/C [30] was 71.2%, the viability, T/C (second compound 0.3 µM, first compound 3.16 µM) was 74.2% and the viability, T/C (second compound 0.3 µM, first compound 10 µM) was 102%. For the same molecule, the viability, T/C [33] was 53.3%, the viability, T/C [34] was 116% and the viability, T/C [35] was 81.3%. It also gave a viability, T/C [36] of 58.5%, a viability, T/C (second compound 0.949 µM, first compound 3.16 µM) of 86.6% and a viability, T/C (second compound 0.949 µM, first compound 10 µM) of 93.6%. The viability, T/C [39] was 64.2%, the viability, T/C [40] was 60.6% and the viability, T/C [41] was 63.3%. The viability, T/C [42] was 77.7%, the viability, T/C (second compound 3 µM, first compound 3.16 µM) was 93% and the viability, T/C (second compound 3 µM, first compound 10 µM) was 66.7%.

`CNC(C)C(=O)NC1CN(S(=O)(=O)c2cccc(S(=O)(=O)N3CCC4CCC(C(=O)NC(c5ccccc5)c5ccccc5)N4C(=O)C(NC(=O)C(C)NC)C3)c2)CCC2CCC(C(=O)NC(c3ccccc3)c3ccccc3)N2C1=O` (stereo not given) was tested, and the IC50 (compound alone, run of 11/15/2022) was > 1000 nM and the IC50 (curve of compound) was > 1000 nM.

In the case of `Cn1ncnc1[C@H]1c2n[nH]c(=O)c3cc(F)cc(c23)N[C@@H]1c1ccc(F)cc1` + CCN1C(C(=O)NC23CCC(C(=O)O)(CC2)CC3)C(c2cccc(Cl)c2F)C2(C(=O)Nc3cc(Cl)ccc32)C12CCCCC2, the IC50 [1] is reported as > 100 nM, the IC50 [2] is reported as > 100 nM and the IC50 [3] is reported as > 100 nM. The IC50 [4] was > 100 nM, the IC50 [5] was > 100 nM and the IC50 [6] was > 100 nM. It also gave a viability, T/C (second compound 0.00949 µM, first compound 0.000316 µM) of 87%, a viability, T/C (second compound 0.00949 µM, first compound 0.001 µM) of 86.3% and a viability, T/C [7] of 103%. The viability, T/C [8] was 103%, the viability, T/C [9] was 84.8% and the viability, T/C [10] was 98.1%. For the same molecule, the viability, T/C (second compound 0.03 µM, first compound 0.000316 µM) was 119%, the viability, T/C (second compound 0.03 µM, first compound 0.001 µM) was 82.3% and the viability, T/C [13] was 72%. The viability, T/C [14] was 91.5%, the viability, T/C [15] was 74.6% and the viability, T/C [16] was 65.5%. The viability, T/C (second compound 0.0949 µM, first compound 0.000316 µM) was 137%, the viability, T/C (second compound 0.0949 µM, first compound 0.001 µM) was 56.1% and the viability, T/C [19] was 105%. It also gave a viability, T/C [20] of 82.4%, a viability, T/C [21] of 90.6% and a viability, T/C [22] of 87.5%. The viability, T/C (second compound 0.3 µM, first compound 0.000316 µM) was 103%, the viability, T/C (second compound 0.3 µM, first compound 0.001 µM) was 90.7% and the viability, T/C [25] was 93.7%. The viability, T/C [26] was 97.3%, the viability, T/C [27] was 75.4% and the viability, T/C [28] was 91.1%. The viability, T/C (second compound 0.949 µM, first compound 0.000316 µM) was 75.2%, the viability, T/C (second compound 0.949 µM, first compound 0.001 µM) was 92.3% and the viability, T/C [31] was 108%. For the same molecule, the viability, T/C [32] was 72.3%, the viability, T/C [33] was 91.9% and the viability, T/C [34] was 95.8%. The viability, T/C (second compound 3 µM, first compound 0.000316 µM) was 70.2%, the viability, T/C (second compound 3 µM, first compound 0.001 µM) was 68.8% and the viability, T/C [37] was 68.3%. For the same molecule, the viability, T/C [38] was 74.2%, the viability, T/C [39] was 107% and the viability, T/C [40] was 85.1%.

For `O=C(c1ccc(F)c(F)c1Nc1ccc(I)cc1F)N1CC(O)([C@@H]2CCCCN2)C1`, the viability, T/C (compound 0.00316 µM) was 85.1% and 106% and 91%, the viability, T/C (compound 0.01 µM) was 92.7% and 96% and 89.8% and the viability, T/C (compound 0.0316 µM) was 61.4% and 68.8% and 91.4%. For the same molecule, the viability, T/C (compound 0.1 µM) was 71.8% and 85.1% and 80.8%, the viability, T/C (compound 0.316 µM) was 38.6% and 49.1% and 46.9% and the viability, T/C (compound 1 µM) was 18.4% and 19.7% and 19.3%. For the same molecule, the IC50 (curve of compound) was 202 nM and 325 nM and 284 nM.
